# In patent US20240316079A1, “USE OF AKR1C3-ACTIVATED COMPOUND” (OBI PHARMA, INC., priority 2021, published 2024):
# Read-outs that look alike come from different tables or passages of the source.
# Columns and labels:
# [1] = molecular target: T1, recombinant human AKR1C4 (Homo sapiens, UniProt P17516); experiment: Incubation of 3424 with AKR1C4 (2660 production, LC-MS/MS); type: biochemical
# T1 construct: purchased Sigma
# [2] = system: SNU-398; experiment: In vitro proliferation assay, liver cancer cell line SNU-398; type: cell-based; conditions: Homo sapiens, 96 hours of drug exposure, AKR1C3 protein Low, read-out: 3424 IC50
# Protocol: (§1) IC50 was calculated as described above.
# [3] = system: NCIH1755; experiment: In vitro proliferation assay, NSCLC cell line NCIH1755; type: cell-based; conditions: Homo sapiens, NCI-H1755, 72 hours of drug exposure, read-out: 3424 IC50
# Protocol: as §1
# [4] = system: CAL12T; experiment: In vitro proliferation assay, NSCLC cell line CAL12T; type: cell-based; conditions: Homo sapiens, CAL-12T, 72 hours of drug exposure, read-out: 3424 IC50
# Protocol: as §1
# [5] = molecular target: T2, recombinant human AKR1C3 (Homo sapiens, UniProt P42330); experiment: Kinetic analysis of AKR1C3 towards various substrates (NADPH absorbance 340 nm); type: biochemical; conditions: substrate of AKR1C3, 25° C., triplicate
# T2 construct: purchased Abcam (Cambridge, MA)
# T2 sequence (P42330 1-323): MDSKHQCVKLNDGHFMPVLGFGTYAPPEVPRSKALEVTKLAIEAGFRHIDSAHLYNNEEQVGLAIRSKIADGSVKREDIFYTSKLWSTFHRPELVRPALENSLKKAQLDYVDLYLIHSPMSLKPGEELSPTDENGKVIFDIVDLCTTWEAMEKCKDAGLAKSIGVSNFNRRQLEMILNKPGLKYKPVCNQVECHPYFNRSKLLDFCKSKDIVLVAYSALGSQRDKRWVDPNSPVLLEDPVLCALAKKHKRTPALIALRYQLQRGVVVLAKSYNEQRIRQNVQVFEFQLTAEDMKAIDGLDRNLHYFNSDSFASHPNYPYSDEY
# Protocol: The reaction was incubated at 25° C. and terminated at various time points by adding acetonitrile and methanol (at a ratio of 9 to 1) and subjected for LC-MS/MS analysis. For enzyme kinetic analysis, the activity was determined with a SpectraMax M2^e spectrophotometer (Molecular Devices, LLC, San Jose, CA) by measuring the decrease in absorbance of the NADPH at 340 nm (E=6270 M^−1 cm^−1). After the initiation of the reaction by addition of substrates, the reactions were monitored at 30 s intervals at 25° C. The non-substrate reaction rate was also monitored as background and its slope was used to determine the initial velocity of the reaction. The kinetic data reported were the average of triplicate measurements.
# [6] = system: SNU-182; experiment: In vitro proliferation assay, liver cancer cell line SNU-182; type: cell-based; conditions: Homo sapiens, 96 hours of drug exposure, AKR1C3 protein Low, read-out: 3424 IC50
# Protocol: as §1
# [7] = system: HLE; experiment: In vitro proliferation assay, liver cancer cell line HLE; type: cell-based; conditions: Homo sapiens, 96 hours of drug exposure, AKR1C3 protein Medium, read-out: 3424 IC50
# Protocol: as §1
# [8] = system: NCI-H1563; experiment: In vitro proliferation assay, NSCLC cell line NCI-H1563; type: cell-based; conditions: Homo sapiens, 72 hours of drug exposure, read-out: 3424 IC50
# Protocol: as §1
# [9] = system: NCI-H2110; experiment: In vitro proliferation assay, NSCLC cell line NCI-H2110; type: cell-based; conditions: Homo sapiens, 72 hours of drug exposure, read-out: 3424 IC50
# Protocol: as §1
# [10] = system: NCI-H2228; experiment: In vitro proliferation assay, NSCLC cell line NCI-H2228; type: cell-based, human
# Protocol: as §1
# [11] = system: LU2057 PDX; experiment: Lung cancer PDX model LU2057 (low AKR1C3); type: in vivo, mice
# Protocol: (§2) Anti-tumor activity of 3424 in PDX models was assessed at CrownBio Bioscience (Beijing, China) Inc. using female BALB/c nude mice (6-7 weeks old, Beijing Anikeeper Biotech Co., Ltd, Beijing, China). Tumor fragments (PA1280, GA6201, LU2057 and LU2505) from stock mice inoculated with selected primary human cancer tissues (pancreatic, gastric cancer, and lung) were harvested and used for inoculation into BALB/c nude mice. Each mouse was inoculated subcutaneously for tumor development. Mice were allocated randomly into experimental groups when the average tumor size reached ˜100 mm^3) by using StudyDirector™ Ver 3.1.399.19 (Studylog Systems, Inc., S. San Francisco, CA, USA). Prodrug 3424 was administered IV at the indicated doses with a regimen of Q7D×3. Each group consisted of 5-6 mice. The grouping day was denoted as Day 0. Prodrug 3424 was administrated to the tumor-bearing mice from Day 0 through Days as indicated for each study.
# [12] = system: PA1280 PDX; experiment: Pancreatic cancer PDX model PA1280; type: in vivo, mice
# Protocol: as §2
# [13] = system: H460 subcutaneous xenograft; type: in vivo, mice; conditions: 1 week off, Q7D × 2
# Protocol: (§3) In vivo anti-tumor activity of 3424 was evaluated using GFP-expressing cancer cell lines in an orthotopic liver cancer model (HepG2) and a subcutaneous lung cancer model (H460) CDX models at AntiCancer, Inc (Beijing, China). Female athymic nude mice (6 weeks; BALB/c-nu, Beijing HFK Bioscience Co., Ltd., Beijing, China) were used in the studies. Each mouse was implanted with a HepG2-GFP tumor chunk (˜1 mm^3 in diameter) in the right lobe of the liver for tumor development or inoculated subcutaneously with H460-GFP tumor chunk (˜1 mm^3 in diameter). About 3-10 days later, whole mouse body scan was performed using FluorVivo Model-100 fluorescence imager (INDEC Biosystems, Inc., Los Altos, CA). Mice with similar fluorescent areas were selected and randomly grouped. Both cell lines expressed high level of AKR1C3. Prodrug 3424 was dosed intravenously (IV) at 1.25, 2.5 mg/kg or 5 mg/kg Q7D×2 for the HepG2 orthotopic model or at 0.625, 1.25 or 2.5 mg/kg for the H460 xenograft model with a regimen of Q7D×2, 1 week off, then Q7D×2 again. Sorafenib was used as the positive control in the HepG2 model and was dosed orally at 30 mg/kg with a regimen of QD×5×7 cycles. Taxol was used as the positive control in the H460 model and was administered at 15 mg/kg IV with a regimen of BIW×4. During the experiments, mice were observed daily and body weight was measured twice a week. Tumor burden was monitored twice a week either by caliper measurement (H460) or FluorVivo fluorescence imager (H460-GFP and HepG2-GFP).
# [14] = system: HepG2 orthotopic xenograft; type: in vivo, mice; conditions: for TGI: Day 34
# Protocol: as §3
# T1 sequence (P17516 whole entry): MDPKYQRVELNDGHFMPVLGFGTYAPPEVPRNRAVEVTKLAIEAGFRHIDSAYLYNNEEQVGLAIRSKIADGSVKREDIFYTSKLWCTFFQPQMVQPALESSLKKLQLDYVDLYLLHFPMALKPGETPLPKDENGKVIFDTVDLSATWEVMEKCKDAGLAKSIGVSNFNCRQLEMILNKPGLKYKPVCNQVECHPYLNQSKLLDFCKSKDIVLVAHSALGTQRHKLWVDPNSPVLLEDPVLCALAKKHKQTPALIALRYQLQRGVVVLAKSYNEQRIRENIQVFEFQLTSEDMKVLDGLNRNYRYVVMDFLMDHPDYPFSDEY
smiles,measurement,setting,value
"C[C@H](OP(=O)(N1CC1)N1CC1)c1ccc([N+](=O)[O-])c(Oc2cccc(C(=O)N(C)C)c2)c1 [Compound 3424, (S)-1-(3-(3-N,N-dimethylaminocarbonyl)phenoxyl-4-mtrophenyl)-1-ethyl-N,N′-bis(ethylene)phosphoramidate]",metabolism by AKR1C4,[1],not metabolized
same,2660 Concentration,"[1]; 3424 concentration 50 μM, incubation with AKR1C4, BQL: below quantification limit (0.25 ng/mL)",BQL
same,IC50,[2],> 1000 nM
same,IC50,[3],8.2 nM
same,IC50,[4],29.1 nM
same,Kcat,[5],0.0107 ± 0.00017 s⁻¹
same,Km,[5]; read-out: Km,12.6 ± 0.28 µM
same,IC50,[6],> 1000 nM
same,IC50,[7],113 nM
same,IC50,[8],2.5 nM
same,IC50,[9],1.1 nM
same,IC50,"[10]; Homo sapiens, NCI-H2228, 72 hours of drug exposure, read-out: 3424 IC50",0.21 nM
same,enhanced cytotoxicity in line expressing high AKR1C3 versus low/no AKR1C3,[10]; NCI-H2228 NSCLC line,up to 5000 fold
same,TGI,[11]; 3424 2.5 mg/kg i.v. Q7D × 3,−20.9%
same,tolerability / body weight loss,"[11]; LU2057, all tested doses",no body weight loss
same,TGI,[12]; 3424 2.5 mg/kg i.v. Q7D × 3,77.4%
same,tolerability / body weight loss,"[12]; PA1280, all tested doses",no body weight loss
same,TGI,[13]; 3424 0.625 mg/kg i.v. Q7D × 2,60.2%
same,TGI,[13]; 3424 1.25 mg/kg i.v. Q7D × 2,67.2%
same,TGI,"[13]; 3424 2.5 mg/kg i.v. Q7D × 2, 2.5 mg/kg",88%
same,TGI,[14]; 3424 1.25 mg/kg i.v. Q7D × 2,52.4%
same,complete regression rate,[14]; 3424 2.5 mg/kg i.v. Q7D × 2,80%
same,TGI,[14]; 3424 2.5 mg/kg i.v. Q7D × 2,91.5%
same,complete regression rate,[14]; 3424 5 mg/kg i.v. Q7D × 2,100%
same,TGI,[14]; 3424 5 mg/kg i.v. Q7D × 2,101.2%
same,body weight loss,"[14]; mouse, in vivo",no body weight loss
